Data: PMC5011688, “Polysaccharide enhances Radix Saposhnikoviae efficacy through inhibiting chromones decomposition in intestinal tract” (Scientific Reports, 2016)
Where two headings read alike, the source gives them in different places.

Key:
[1] = Metabolism study of PGCN and GML in simulated gastric fluid (SGF); type: in vitro ADME; conditions: SGF pH 1.2, 37 °C, 2 h
Method: (§1) Simulated gastric fluid (SGF, pH 1.2) and simulated intestinal fluid (SIF, pH 6.8) were prepared based on Chinese Pharmacopeia (2010) and have been depicted previously. 100 μg PGCN or GML was added to 4 ml of either SGF or SIF to yield 4 reaction systems, i.e., PGCN/SGF (213.47 nM), PGCN/SIF (213.47 nM), GML/SGF (220.99 nM), GML/SIF (220.99 nM), respectively. Polysaccharides extracted in RS were added to these 4 reaction systems in accordance with the actual chromone-polysaccharide proportion, with each reaction further became three sub-systems, i.e., 0 polysaccharide/chrome, 1/2 polysaccharide/chromone, and pan-polysaccharide/chromone. Meanwhile, these 12 systems were allowed to react at 37 °C. Following 2 h, the reaction was stopped by 100 °C boiling for 10 min. Subsequently, these systems were evaporated to dryness and the residue was reconstituted in 1 ml methanol. After centrifugation at 3,000 rpm for 10 min, the supernatant was collected and used for HPLC analysis.

[2] = Metabolism study of PGCN and GML in simulated intestinal fluid (SIF); type: in vitro ADME; conditions: SIF pH 6.8, 37 °C, 2 h
Method: as §1

[3] = test system: Caco-2 cell monolayers; assay: Caco-2 bidirectional transport assay of cimifugin; type: in vitro ADME; conditions: for effect on flux/transport of cimifugin across Caco-2 monolayers: pretreatment or co-application with cimifugin, A→B flux, similar for B→A
Method: Caco-2 cells were obtained from the American Type Culture Collection (ATCC). […] For the permeability test, cells were seeded in transwell supports with polycarbonate membrane (0.4 μm, 1.12 cm^2, Corning Costar) at a density of 6 × 10^4 cells/cm^2. The integrity of the monolayers was tested by measuring the transepithelial electrical resistance (TEER) before and after every experiment. Only monolayers with TEER >200 Ω/cm^2 were used. Test compounds in transport buffer were added to the donor compartments of either apical (A → B) or basolateral (B → A) wells of the Insert System and incubated at 37 °C. Samples were collected at 0, 30, 60, 90, 120, and 150 min time points and analyzed for HPLC analysis of content of cimifugin as described above.

[4] = Transport of chromones across semi-permeable membrane (dialysis bag) with or without RS polysaccharide; type: physicochemical; conditions: 6 h; for total chromone: inside plus outside the membrane; for total chromone / Fluid inside the semi-permeable membrane, chromone / Fluid outside the semi-permeable membrane, chromone: pH 7.8, 37 °C; for Fluid inside the semi-permeable membrane, chromone / Fluid outside the semi-permeable membrane, chromone: sum of PGCN and cimifugin
Method: Dialysis bags made by semi-permeable membrane materials were used in this analysis. ~3 cm long dialysis bags were first processed as the following procedures in succession: 1) boiled for 5 min in distilled water; 2) rinsed by 60 °C water for 2 min; 3) rinsed by small intestine buffer for 2 min; 4) rinsed by small intestine buffer for 2 min; 5) immersed in buffer at 4 °C. After 12 h, these processed dialysis bags were tied tightly at one end to form a dialysis bag. 1 ml small intestine buffer (pH 7.8) containing cimifugin, PGCN, cimifugin + polysaccharide, or PGCN + polysaccharide was added into this bag and a glass bead was put in to keep this bag vertical. When the other end was tied (an air bubble was retained), this dialysis bag was suspended in 15 ml small intestine buffer. This system was left to stand for 6 h in 37 °C water bath and chromone content inside and outside of this semi-permeable membrane was measured by HPLC analysis.

[5] = Pharmacokinetic measurement of chromone (cimifugin in rat plasma after oral chromone extracts); type: in vivo, Sprague-Dawley rats; conditions: for Tmax: male, Sprague-Dawley, rat, plasma, po, 4 g crude drug/kg, oral chromone extracts 4 g crude drug/kg for 5 days, plasma HPLC
Method: To explore the influence of RS polysaccharide on the pharmacokinetics of chromones, 2.11 g, 1.05 g RS polysaccharide, and 2.11 g glucuronic acid were added to the three aliquots of chromone components, with one aliquot left as control. Thus, totally four test compounds were obtained, including chromone/pan-polysaccharide (CP), chromone/1/2polysaccharide (CHP), chromone/glucuronic acid (CG), and chromone, which served as control. Forty male Sprague-Dawley rats were used in this experiment. They were randomly divided into 4 groups, each consisting of 10 rats. The rats in these four groups were orally administered with CP, CHP, CG and chromones at the dose of 4 g crude drug (equivalent to 10 ml RS extracts) per kg body weight, respectively for five consecutive days. After the final drug delivery of day 5 (at 0.5, 1, 1.5, 2, 3, 5, 8, 12, 16, and 24 h/day), rats were anesthetized by ether inhalation and rat blood samples were obtained from the orbit vein and centrifuged immediately at 3,000 rpm for 10 min to yield plasma. Each plasma sample (100 μl) was mixed with 20 μl of 70% perchloric acid and vortexed and centrifuged at 3,000 rpm for 10 min. The supernatant were subjected to 0.45 μm microporous membrane and the filtrate was collected for subsequent high performance liquid chromatography (HPLC) analysis. Chromatographic separation and analysis using an L-2000 Elite HPLC system has been previously reported. Briefly, the separation of the analytes were performed on a Kromasil C18 column (200 mm × 4.6 mm i.d., particle size 5 μm), equipped with a Shim-pack security guard column at a column temperature of 25 °C. The binary mobile phase consisted of methanol and water. A flow rate of 1.0 ml/min with a gradient elution program as follows: 40–45% methanol at 0–5 min; 45–60% methanol at 5–10 min; 60–80% methanol at 10–15 min; 80–95% methanol at 15–20 min; 95–40% methanol at 20–30 min. The injection volume was 20 μl and detection wavelength was kept at 254 nm.

[6] = Transformation of cimifugin in small intestine enzyme solution; type: in vitro ADME, Sprague-Dawley rats; conditions: 38 °C
Method: Small intestine segment was taken from ten 12 h-fasting male Sprague-Dawley rats. The intestine tissue was first frozen at −80 °C for 12 h, and then ground and centrifuged at 10,000 rpm for 10 min. The supernatant constituted the enzyme solution used in the experiment. To explore the influence of RS polysaccharide on the metabolism of cimifugin, three groups were designed: control group containing 40 μg cimifugin in 1.2 ml enzyme solution; RS polysaccharide/cimifugin group containing 40 μg cimifugin and 8.7 mg RS polysaccharide in 1.2 ml enzyme solution; glucuronic acid/cimifugin group containing 40 μg cimifugin and 8.7 mg glucuronic acid in 1.2 ml enzyme solution. These groups were put in 38 °C water bath for reaction, while samples were taken at 15 and 30 min. After deproteinization by methanol, these samples were centrifuged at 10,000 rpm for 10 min. Subsequently, the supernatant was collected and analyzed for HPLC analysis as described above.

[7] = small intestine buffer pH 7.8, 37 °C, mean ± SD, n = 10
[8] = apical application (A→B), A: cimifugin, B: polysaccharide, C: LY335979, D: troleandomycin, mean ± SD, n = 10
[9] = basolateral application (B→A), A: cimifugin, B: polysaccharide, C: LY335979, D: troleandomycin, mean ± SD, n = 10

COc1c2c(cc3oc(C)cc(=O)c13)OC(C(C)(C)OC1OC(CO)C(O)C(O)C1O)C2 [GML, 4′-O-β-D-glucosyl-5-O-methylvisamminol]
transformation in SGF (in words) [1]: a little GML was converted into PGCN
HPLC peak area, GML ([1]; mean ± SD, n = 10): 1369608 ± 83550
transformation in SIF (in words) [2]: underwent no change
HPLC peak area, GML ([2]; mean ± SD, n = 10): 1369720 ± 112480

Cl.Cl.Cl.O[C@@H](COc1cccc2ncccc12)CN1CCN([C@@H]2c3ccccc3[C@@H]3[C@H](c4ccccc42)C3(F)F)CC1 [LY335979, Zosuquidar Trihydrochloride, reference compound]
effect on flux/transport of cimifugin across Caco-2 monolayers [3]: not affected

COc1c2c(cc3oc(COC4OC(CO)C(O)C(O)C4O)cc(=O)c13)OC(C(C)(C)O)C2 (centres unmarked) [PGCN, prime-O-glucosylcimifugin]
transformation in SGF (in words) [1]: a small amount of PCGN was converted into cimifugin
transformation in SIF (in words) [2]: an overwhelmingly large amount of PGCN was transformed into cimifugin
HPLC peak area, PGCN ([2]; mean ± SD, n = 10): 5159 ± 1238
total chromone [4]: 105.0 ± 0.1 nmol
Fluid inside the semi-permeable membrane, PGCN [4, 7]: 15.2 ± 0.5 nmol
Fluid outside the semi-permeable membrane, PGCN [4, 7]: 89.8 ± 0.4 nmol
Fluid inside the semi-permeable membrane, chromone [4]: 15.2 ± 0.5 nmol
Fluid outside the semi-permeable membrane, chromone [4]: 89.8 ± 0.4 nmol

COc1c2c(cc3oc(CO)cc(=O)c13)O[C@H](C(C)(C)O)C2 [cimifugin]
Tmax ([5]; read-out: Tmax of cimifugin in rat plasma (first peak of double-peak curve)): 1.5 h
Tmax ([5]; read-out: Tmax of cimifugin in rat plasma (second peak of double-peak curve)): 8 h
detection in plasma of chromone treated rats (HPLC qualitative analysis) ([5]; whole process of the experiment, data not shown): only cimifugin was detected
Basolateral content of cimifugin, 30 min [3, 8]: 15.21 ± 2.34 ng
Basolateral content of cimifugin, 60 min [3, 8]: 30.85 ± 3.64 ng
Basolateral content of cimifugin, 90 min [3, 8]: 143.92 ± 12.32 ng
Basolateral content of cimifugin, 120 min [3, 8]: 236.01 ± 22.86 ng
Basolateral content of cimifugin, 150 min [3, 8]: 201.33 ± 15.32 ng
Apical content of cimifugin, 30 min [3, 9]: 26.87 ± 1.54 ng
Apical content of cimifugin, 60 min [3, 9]: 50.45 ± 2.27 ng
Apical content of cimifugin, 90 min [3, 9]: 234.35 ± 11.36 ng
Apical content of cimifugin, 120 min [3, 9]: 354.24 ± 15.47 ng
Apical content of cimifugin, 150 min [3, 9]: 289.46 ± 15.45 ng
stability in small intestine enzyme solutions (in words) ([6]; rat small intestine enzyme solution): underwent degradation to a great extent
total chromone [4]: 161.7 ± 0.5 nmol
Fluid inside the semi-permeable membrane, cimifugin [4, 7]: 18.1 ± 0.6 nmol
Fluid outside the semi-permeable membrane, cimifugin [4, 7]: 143.6 ± 0.1 nmol
Fluid inside the semi-permeable membrane, chromone [4]: 18.1 ± 0.6 nmol
Fluid outside the semi-permeable membrane, chromone [4]: 143.6 ± 0.1 nmol

O=C[C@H](O)[C@@H](O)[C@H](O)[C@H](O)C(=O)O [glucuronic acid, Glucuronic acid, reference compound]
effect on absorption of chromone in the form of cimifugin (AUC at 3 h and later) ([5]; co-administered orally with chromone extract, rat plasma): did not affect
effect on cimifugin degradation / transformation into PGCN in small intestine enzyme solutions (in words) ([6]; added to cimifugin in enzyme solution): did not produce any effect on cimifugin transformation

CO[C@H]1C[C@H](O[C@H]2[C@H](C)[C@@H](O[C@@H]3O[C@H](C)C[C@H](N(C)C)[C@H]3OC(C)=O)[C@@H](C)C[C@@]3(CO3)C(=O)[C@H](C)[C@@H](OC(C)=O)[C@@H](C)[C@@H](C)OC(=O)[C@@H]2C)O[C@@H](C)[C@@H]1OC(C)=O [troleandomycin, Troleandomycin, reference compound]
effect on flux/transport of cimifugin across Caco-2 monolayers [3]: significantly enhanced
